From patent publication US20190328891A1, “MEDICAL PREPARATION WITH A CARRIER BASED ON HYALURONAN AND/OR DERIVATIVES THEREOF, METHOD OF PREPARATION AND USE THEREOF” (CONTIPRO A.S., priority 2016, published 2019)
Square brackets hold non-standard residues; d marks the D form. Nle = CCCC[C@H](N)C(=O)O

Legend:
injured skin = settings: rabbits, alginate bandage containing the peptide; in comparison with Ser-Ile-Lys-Val-Ala-Val and Val-Pro-Val-Ala-Pro-Gly anchored on alginate bandage; cited from earlier work
[1] = system: Primary human fibroblasts (NHDF); assay: In vitro cell adhesion on the fibre comprising RGD motif; format: cell-based; settings: fibre of native HYA with bonded peptide; DiI stained NHDF, 10^5 cells; fluorescent microscope; monitored for 7 days of cultivation (FIG. 6)
Experimental: The fibre of native HYA comprising RGD motif, prepared according to the procedure described in Example 14, and control fibres were cut into 1 cm pieces and transferred onto a non-adhesive panel with 24 wells. Primary human fibroblasts (NHDF) were pre-marked with the fluorescent dye DiI (Exmax/Emmax 549/565) and inoculated, in the amount of 10^5 cells, into the wells filled with the tested samples. Then the panel was shaken by a shaker (5 hrs/160 rpm) to keep the cells in suspension, under cultivation conditions (37° C., 5% CO2). After 24 h of cultivation the fibres were transferred into a well with fresh cultivation medium. Then the cells were observed and detected by fluorescent microscope Nikon Ti-Eclipse with the use of TRITC filter (Exmax/Emmax, 549/565). The fibroblasts proliferation was monitored for 7 days of cultivation.

Substance	epithelization (injured skin)	volume of regenerated tissue (injured skin)	adhesion and proliferation of human dermal fibroblasts on the fibre [1]
Ser-Ile-Arg-Val-X-Val-X-Pro-Gly (where X=Ala or Gly)	significantly higher	larger	–
H-Arg-Gly-Asp-Gly-Gly-Gly-Nle-O-HYA (H-RGDGGG[Nle]-{O‑hyaluronan}) [H-Arg-Gly-Asp-Gly-Gly-Gly-Nle-OH, RGD peptide linked to native hyaluronan fibre via triglycine linker]	–	–	did not support the cell adhesion
H-Gly-Gly-Gly-Arg-Gly-Asp-Nle-O-HYA (H-GGGRGD[Nle]-{O‑hyaluronan}) [H-Gly-Gly-Gly-Arg-Gly-Asp-Nle-OH, peptide with triglycine and RGD anchored to native hyaluronan fibre]	–	–	did not support the cell adhesion
H-Ahx-Ahx-Arg-Gly-Asp-Nle-O-HYA [H-Ahx-Ahx-Arg-Gly-Asp-Nle-OH]	–	–	did not support the cell adhesion
